≈ marks a conversion by molar mass, not a printed value. Where two headings read alike, the source gives them in different places. Where a SMILES comes first, the peptide text is derived from it. Bridges are numbered along the chain shown (N, C = ends). [ ]: non-standard residue; d: D form. Dab = NCC[C@H](N)C(=O)O
What was measured:
PAM1723 cells = experiment: EtBr uptake (proton gradient disruption); type: cell-based, Pseudomonas aeruginosa; details: CCCP 50 μg/ml for 15 minutes, pentamidine 80 μg/ml
Description: A proton gradient is necessary for efflux pump activity. Accordingly, compounds that are capable of proton gradient disruption will appear as efflux inhibitors in accumulation assays. This possibility was tested for pentamidine. EtBr is a substrate of the MexAB-OprM efflux pump from P. aeruginosa as evident from the differential rates of its uptake in PAM 1723 and PAM 1626, MexAB-OprM overexpressing or lacking strains, respectively. CCCP is a well-known protonophore, which rapidly dissipates the proton gradient.

[1] = system: P. aeruginosa PAM1723 (MexAB-OprM overexpressed); type: cell-based, Pseudomonas aeruginosa
[2] = system: P. aeruginosa PAM1154 (MexAB-OprM deleted); type: cell-based, Pseudomonas aeruginosa
[3] = system: P. aeruginosa PAM1020 (pump status none; target mutation none); experiment: microbe, parasite or virus in culture; type: cell-based, Pseudomonas aeruginosa; details: Pseudomonas aeruginosa
Description: (§1) In addition to increased efflux, resistance to fluoroquinolones may be due to target mutations (gyrase and topoisimerase IV) or due to combination of these two resistance mechanisms in a single bacterial cell.

[4] = system: P. aeruginosa PAM1032 (MexAB-OprM); experiment: microbe, parasite or virus in culture; type: cell-based, Pseudomonas aeruginosa; details: Pseudomonas aeruginosa
Description: as §1

[5] = system: P. aeruginosa PAM1033 (MexCD-OprJ); experiment: microbe, parasite or virus in culture; type: cell-based, Pseudomonas aeruginosa; details: Pseudomonas aeruginosa
Description: as §1

[6] = system: P. aeruginosa PAM1034 (MexEF-OprN); experiment: microbe, parasite or virus in culture; type: cell-based, Pseudomonas aeruginosa; details: Pseudomonas aeruginosa
Description: as §1

[7] = system: P. aeruginosa PAM1482 (MexCD-OprJ; gyrA (Asp87Tyr)); experiment: microbe, parasite or virus in culture; type: cell-based, Pseudomonas aeruginosa; details: Pseudomonas aeruginosa
Description: as §1

[8] = system: P. aeruginosa PAM1491 (MexEF-OprN; gyrA (Asp87Tyr)); experiment: microbe, parasite or virus in culture; type: cell-based, Pseudomonas aeruginosa; details: Pseudomonas aeruginosa
Description: as §1

[9] = system: P. aeruginosa PAM1548 (pump status none; gyrA (Thr83Ile)); experiment: microbe, parasite or virus in culture; type: cell-based, Pseudomonas aeruginosa; details: Pseudomonas aeruginosa
Description: as §1

[10] = system: P. aeruginosa PAM1569 (MexCD-OprJ; gyrA (Thr83Ile)); experiment: microbe, parasite or virus in culture; type: cell-based, Pseudomonas aeruginosa; details: Pseudomonas aeruginosa
Description: as §1

[11] = system: P. aeruginosa PAM1570 (MexEF-OprN; gyrA (Thr83Ile)); experiment: microbe, parasite or virus in culture; type: cell-based, Pseudomonas aeruginosa; details: Pseudomonas aeruginosa
Description: as §1

[12] = system: P. aeruginosa PAM1438 (MexAB-OprM, MexCD-OprJ); experiment: microbe, parasite or virus in culture; type: cell-based, Pseudomonas aeruginosa; details: Pseudomonas aeruginosa
Description: (§2) A set of strains that simultaneously over-expressed pairs or triplicates of pumps, e.g. PAM2302 and PAM2303 was tested. Simultaneous over-expression of efflux pumps has been recently detected in clinical strains.

[13] = system: P. aeruginosa PAM2281 (MexAB-OprM, MexEF-OprN); experiment: microbe, parasite or virus in culture; type: cell-based, Pseudomonas aeruginosa; details: Pseudomonas aeruginosa
Description: as §2

[14] = system: P. aeruginosa PAM2282 (MexAB-OprM, MexEF-OprN); experiment: microbe, parasite or virus in culture; type: cell-based, Pseudomonas aeruginosa; details: Pseudomonas aeruginosa
Description: as §2

[15] = system: P. aeruginosa PAM2302 (MexAB-OprM, MexCD-OprJ, MexEF-OprN); experiment: microbe, parasite or virus in culture; type: cell-based, Pseudomonas aeruginosa; details: Pseudomonas aeruginosa
Description: as §2

[16] = system: P. aeruginosa PAM2466 (MexAB-OprM, MexXY-OprM); experiment: microbe, parasite or virus in culture; type: cell-based, Pseudomonas aeruginosa; details: Pseudomonas aeruginosa
Description: as §2

[17] = system: P. aeruginosa PAM1723 (nalB, overexpressing MexAB-OprM); experiment: microbe, parasite or virus in culture; type: cell-based, Pseudomonas aeruginosa; details: Pseudomonas aeruginosa, read-out: Levofloxacin MIC in the presence of inhibitor, PAM1723; inhibitor 0 μg/ml
Description: Stock solutions were further diluted, according to the needs of a particular assay, in Mueller Hinton Broth (MHB). Stock solution was stored at −80° C.
The checkerboard assay was performed in microtiter plates. […] The result of these manipulations is that each well of the microtiter plate contains a unique combination of concentrations of the two agents. The assay was performed in MHB with a final bacterial inoculum of 5×10^5 CFU/ml (from an early-log phase culture). Microtiter plates were incubated during 20 h at 35° C. and were read using a microtiterplate reader (Molecular Devices) at 650 nm as well as visual observation using a microtiter plate reading mirror.
The test organisms used was PAM1020, which is a wild type strain of P. aeruginosa expressing the basal level of MexAB-OprM, as well as PAM1723, PAM1738, and PAM1753, overexpressing the MexAB-OprM, MexCD-OprJ, and MexEF-OprN pump, respectively.
Efflux pump inhibitory activity of several commercially available diamidine analogs was evaluated using the checkerboard assay of Example 1 against the strain of P. aeruginosa overexpressing the MexAB-OprM efflux pump.

[18] = system: 108 recent clinical isolates of P. aeruginosa obtained from cystic fibrosis patients; experiment: Susceptibility of cystic fibrosis clinical isolates (broth-micro-dilution, NCCLS); type: cell-based, Pseudomonas aeruginosa; details: 108 CF isolates; combinations with 20 μg/ml of pentamidine
[19] = system: outer membrane of P. aeruginosa strain PAM2005; details: Mg2+ free buffer, nitrocefin 64 μg/ml
[20] = read-out: Ciprofloxacin MIC w/o pentamidine
[21] = read-out: Levofloxacin MIC w/o pentamidine

For `N#CC(C#N)=NNc1cccc(Cl)c1` [CCCP], the EtBr uptake (PAM1723 cells) was “dramatic increase of EtBr uptake”.

For `O=C(O)c1cn(C2CC2)c2cc(N3CCNCC3)c(F)cc2c1=O` [Ciprofloxacin, ciprofloxacin], the MIC, No Pentamidine ([1]; PAM1723 (MexAB-OprM overexpressed)) was 0.25 µg/mL (≈ 0.754 µM), the “MIC, Pentamidine (40 μg/ml)” value ([1]; PAM1723 (MexAB-OprM overexpressed), in the presence of pentamidine 40 μg/ml) was 0.03 and the “decrease of the MIC by pentamidine” value ([1]; PAM1723, pentamidine 40 μg/ml) was 8 fold. It also gave an MIC, No Pentamidine [2] of 0.008 µg/mL (≈ 0.0241 µM), an MIC [3, 20] of 0.06 µg/mL and an MIC [4, 20] of 0.5 µg/mL. The MIC [5, 20] was 1 µg/mL, the MIC [6, 20] was 1 µg/mL and the MIC [7, 20] was 8 µg/mL. The MIC [8, 20] was 8 µg/mL, the MIC [9, 20] was 2 µg/mL and the MIC [10, 20] was 16 µg/mL. For the same compound, the MIC [11, 20] was 16 µg/mL, the MIC [12, 20] was 16 µg/mL (≈ 48.3 µM) and the MIC [13, 20] was 8 µg/mL (≈ 24.1 µM). The MIC [14, 20] was 2 µg/mL (≈ 6.04 µM), the MIC [15, 20] was 2 µg/mL (≈ 6.04 µM) and the MIC [16, 20] was 0.5 µg/mL (≈ 1.51 µM).

`C[C@H]1COc2c(N3CCN(C)CC3)c(F)cc3c(=O)c(C(=O)O)cn1c23` [Levofloxacin, levofloxacin] gave an MIC [17] of 2 µg/mL, an MIC [3, 21] of 0.25 µg/mL and an MIC [4, 21] of 2 µg/mL. For the same compound, the MIC [5, 21] was 4 µg/mL, the MIC [6, 21] was 4 µg/mL and the MIC [7, 21] was 16 µg/mL. For the same compound, the MIC [8, 21] was 32 µg/mL, the MIC [9, 21] was 2 µg/mL and the MIC [10, 21] was 32 µg/mL. The MIC [11, 21] was 32 µg/mL, the MIC [12, 21] was 4 µg/mL (≈ 11.1 µM) and the MIC [13, 21] was 8 µg/mL (≈ 22.1 µM). The MIC [14, 21] was 8 µg/mL (≈ 22.1 µM), the MIC [15, 21] was 8 µg/mL (≈ 22.1 µM) and the MIC [16, 21] was 2 µg/mL (≈ 5.53 µM). For the same compound, the MIC50 [18] was 2 µg/mL and the MIC90 [18] was 8 µg/mL.

In the case of `CC(C)C[C@@H]1NC(=O)[C@@H](Cc2ccccc2)NC(=O)[C@H](CCN)NC(=O)[C@@H](NC(=O)[C@H](CCN)NC(=O)[C@@H](N)[C@@H](C)O)CCNC(=O)[C@H]([C@@H](C)O)NC(=O)[C@H](CCN)NC(=O)[C@H](CCN)NC1=O` [PMBN] (H-T[Dab][Dab][Dab][dF]L[Dab][Dab]T; lactam 3-C; N-terminus assumed), the “IC50, permeabilization of the outer membrane” value [19] is reported as < 2 µg/mL.

From patent US7947741B2, “Use and administration of bacterial efflux pump inhibitors” (Mpex Pharmaceuticals, Inc., priority 2004, dated 2011)
